According to the supplement of paper PMC10307832:

How the values were obtained:
Experiment in all cases: relative viability (nuclei count vs DMSO), 5 days (fraction); higher = more cells survive
[1] = compound: COc1cc2nccc(Oc3ccc(NC(=O)Nc4cc(C)on4)c(Cl)c3)c2cc1OC [Tivozanib]
In short: (§1)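 Lung cancer cell lines were seeded into 1536-well plates, kept overnight at 37 °C and pinned with five library-drug doses (not always all listed) spaced by √10. After 5 days, nuclei were Hoechst-stained, imaged at 4× and counted with MetaXpress. Viability is treated-well nuclei over vehicle-well nuclei, taken as a median across plates. Plates needed control CV below 25% and at least one doubling.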

[2] = compound: Cc1cnc(-c2cnc(NCCNc3ccc(C#N)cn3)nc2-c2ccc(Cl)cc2Cl)[nH]1
In short: as §1

[3] = compound: O=C(O)CCCCC(CCSCc1ccccc1)SCc1ccccc1 [CPI-613]
In short: as §1

[4] = compound: Cc1sc2c(c1C)C(c1ccc(Cl)cc1)=N[C@@H](CC(=O)OC(C)(C)C)c1nnc(C)n1-2 [JQ1]
In short: as §1

[5] = compound: CC(=O)O[C@@]12CO[C@@H]1C[C@H](O)[C@@]1(C)C(=O)[C@H](O)C3=C(C)[C@@H](OC(=O)[C@H](O)[C@@H](NC(=O)OC(C)(C)C)c4ccccc4)C[C@@](O)([C@@H](OC(=O)c4ccccc4)[C@H]21)C3(C)C [Docetaxel]
In short: as §1

[6] = compound: O=c1[nH]c2ccccc2n1C1CCN(CCCC(c2ccc(F)cc2)c2ccc(F)cc2)CC1 [Pimozide]
In short: as §1

[7] = compound: Nc1ccn([C@@H]2O[C@H](CO)[C@@H](O)[C@@H]2O)c(=O)n1 [Cytarabine]
In short: as §1

Row | Cell Line | relative viability ([1]; 0.005 µM) | relative viability ([1]; 0.01581 µM) | relative viability ([1]; 0.05 µM) | relative viability ([1]; 0.1581 µM) | relative viability ([1]; 0.5 µM) | relative viability ([2]; 0.08 µM) | relative viability ([2]; 0.253 µM) | relative viability ([2]; 0.8 µM) | relative viability ([2]; 2.53 µM) | relative viability ([3]; 5 µM) | relative viability ([3]; 15.81 µM) | relative viability ([3]; 50 µM) | relative viability ([3]; 158.11 µM) | relative viability ([3]; 500 µM) | relative viability ([4]; 0.04 µM) | relative viability ([4]; 0.1265 µM) | relative viability ([4]; 0.4 µM) | relative viability ([4]; 1.265 µM) | relative viability ([4]; 4 µM) | relative viability ([5]; 0.0002 µM) | relative viability ([5]; 0.000632 µM) | relative viability ([5]; 0.002 µM) | relative viability ([5]; 0.006325 µM) | relative viability ([5]; 0.02 µM) | relative viability ([6]; 0.08 µM) | relative viability ([6]; 0.253 µM) | relative viability ([6]; 0.8 µM) | relative viability ([6]; 2.53 µM) | relative viability ([6]; 8 µM) | relative viability ([7]; 0.005 µM) | relative viability ([7]; 0.01581 µM) | relative viability ([7]; 0.05 µM) | relative viability ([7]; 0.1581 µM) | relative viability ([7]; 0.5 µM)
1 | NCI-H2085 | 0.982 | 1 | 1.02 | 0.936 | 0.982 | 1.04 | 0.933 | 0.995 | 1.02 | 0.987 | 0.935 | 0.935 | 0.82 | 0.246 | 1.01 | 0.891 | 0.867 | 0.622 | 0.537 | 0.968 | 0.987 | 0.746 | 0.504 | 0.373 | 0.973 | 1.01 | 0.957 | 1.02 | 0.881 | 0.965 | 0.929 | 0.868 | 0.808 | 0.801
2 | NCI-H2087 | 0.988 | 0.972 | 0.956 | 1.28 | 0.995 | 1.12 | 0.723 | 1.05 | 0.886 | 0.971 | 1.09 | 0.954 | 0.307 | 0.0055 | 0.996 | 0.661 | 0.963 | 0.581 | 0.451 | 0.947 | 0.5 | 0.223 | 0.182 | 0.107 | 1.11 | 1.05 | – | 1.05 | 0.773 | 0.946 | 0.888 | 0.722 | 0.614 | 0.36
3 | NCI-H2126 | 0.968 | 0.961 | 1.04 | 0.713 | 0.98 | 1.03 | 0.927 | 0.952 | 1.04 | 0.98 | 0.991 | 1.05 | 0.563 | 0.592 | 1.01 | 0.928 | 0.858 | 0.697 | 0.648 | 1.02 | 0.886 | 0.624 | 0.369 | 0.227 | 0.978 | 0.948 | 1.02 | 0.966 | 0.986 | 0.887 | 0.9 | 0.716 | 0.714 | 0.618
4 | NCI-H2170 | 0.928 | 0.923 | 0.956 | – | 1.02 | 1.1 | 0.655 | 0.989 | 0.958 | 0.939 | 0.903 | 0.998 | 0.802 | 0.301 | 1 | 0.778 | 0.908 | 0.711 | 0.503 | 1.01 | 0.999 | 0.828 | 0.271 | 0.201 | 1.05 | 0.94 | 0.956 | 0.945 | 0.947 | 0.822 | 0.741 | 0.688 | 0.463 | 0.402
5 | NCI-H2228 | 0.897 | 0.866 | 0.933 | 0.965 | 0.989 | 1.03 | 0.887 | 1.01 | 0.864 | 0.915 | 0.931 | 0.893 | 0.744 | 0.0258 | 0.927 | 0.857 | 0.876 | 0.462 | 0.406 | 0.749 | 0.341 | 0.2 | 0.199 | 0.144 | 1.07 | 1.11 | 0.868 | 0.805 | 0.543 | 0.5 | 0.432 | 0.428 | 0.163 | 0.141
6 | NCI-H2342 | 0.88 | 0.948 | 0.886 | – | 0.987 | 1.13 | 0.794 | 0.952 | 0.903 | 0.929 | 1.01 | 1.07 | 0.97 | 1.07 | 1.17 | 0.775 | 0.993 | 0.943 | 0.756 | 1.04 | 0.818 | 0.692 | 0.619 | 0.484 | 1.01 | 0.876 | 0.912 | 0.863 | 0.995 | 0.909 | 0.878 | 0.793 | 0.744 | 0.608
7 | NCI-H2347 | 0.95 | 0.997 | 1.17 | 0.939 | 1 | 1.08 | 0.894 | 0.958 | 1.09 | 1.03 | 0.866 | 0.96 | 0.776 | 0.844 | 0.992 | 0.771 | 0.886 | 0.709 | 0.518 | 0.973 | 0.952 | 0.726 | 0.52 | 0.459 | 0.911 | 0.957 | 0.828 | 0.962 | 0.986 | 1.07 | 0.914 | 0.825 | 0.658 | 0.661
8 | NCI-H2405 | 0.933 | 1.02 | 1.04 | 0.89 | 0.772 | 1.01 | 0.938 | 0.948 | 0.736 | 0.996 | 0.909 | 0.939 | 0.931 | 0.78 | 1.03 | 0.598 | 0.921 | 0.711 | 0.499 | 0.982 | 0.879 | 0.633 | 0.453 | 0.339 | 0.964 | 0.937 | 1.03 | 0.992 | 0.96 | 0.927 | 0.712 | 0.57 | 0.512 | 0.384
9 | NCI-H3122 | 0.961 | 1.03 | 1.01 | 1.12 | 1.02 | 0.962 | – | 0.988 | 0.965 | 0.969 | 1.01 | 1.02 | 0.956 | 0.146 | 0.962 | 0.791 | 0.96 | 0.857 | 0.518 | 0.981 | 0.839 | 0.731 | 0.184 | 0.12 | 0.983 | 1.02 | 0.948 | 0.962 | 1.03 | 0.99 | 0.928 | 0.971 | 0.553 | 0.399
